We go through three molecules from patent publication US20090104196A1, “Antibodies For Use in Identifying and/or Scoring Prostate Cancer and Androgen Receptor-Dependent Gene Expression Control” (priority 2005, published 2009).

Assay [1] has as its system LSD1-induced activation of AR. The assay can be described thus: Transient transfection AR-dependent luciferase reporter assay in 293 cells (LSD1 + AR co-expression). The class given is cell-based. The settings on record: R1881, 3×10^−3 M pargyline, 1×10^−3 M deprenyl, or 1×10^−4 M clorgyline for 18 hours, FIG. 4c. How it is done: (§1) 293 and CV-1 cells were cultured and transfected as described^12. LNCaP cells were cultured in phenol-red-free RPMI1640 supplemented with 10% double-stripped fetal calf serum (dsFCS) and transfected with Effectene (Qiagen). The following amounts per well were used: MMTV-LUC, ARE2X-TATA-LUC, ARE2X-TK-LUC, TK-LUC, TREp-LUC, β-RE-LUC, ERE2X-TATA-LUC, PSA-LUC, Slp-ARU-TATA-LUC 500 ng each, 25 ng expression plasmids for AR, PR, ERα, RARα, and TRβ; 500 to 700 ng expression plasmids for LSD1 1-174, LSD1 175-246, LSD1 247-852, LSD1Δ281-360, LSD1ΔAO, pSUPER-control, and pSUPER-LSD1; 100 to 700 ng expression plasmids for LSD1 were transfected per well. […] Luciferase activity was assayed as described^9. All experiments were repeated at least five times in duplicate.

The test system of a further assay is PSA gene. In words: qRT-PCR of endogenous PSA gene expression in LNCaP cells. The class given is cell-based, human. The settings on record: pargyline, FIG. 4d. How it is done:
DNAsel-treated RNA isolated using RNAwiz (Ambion) was used for reverse transcription. Quantitative PCR was performed in an ABI PRISM 7700 sequence detector. Product formation was detected by incorporation of SYBR Green I using ROX as a passive reference (ABgene). The expression ratios of the analyzed cDNAs were related to the normalized Cp of the housekeeping gene GAPDH in control and sample. The following primers were used: GAPDH: 5′-[…]-3′; 5′-[…]-3′; PSA: 5′-[…]-3′; 5′-[…]-3′. Statistical analysis for qPCR was performed by group-wise comparison based on PCR efficiencies and the mean crossing point deviation between sample and control group using Relative Expression Software Tool^19. Experiments were repeated and analysed three times.
For orientation: Real-time PCR tracks product formation cycle by cycle.

The subject of assay [2] is other nuclear receptors (PR, ERα, RARα, TRβ). The assay can be described thus: Reporter assays for other nuclear hormone receptors in 293 cells. The class given is cell-based. The settings on record: pargyline, FIG. 10k. How it is done: as §1
Background: In a reporter assay the amount or activity of a reporter protein is the signal.

The next assay deals with T1, LSD1 (Homo sapiens, UniProt O60341).
T1 construct: endogenous in cells; host or cells: LNCaP cells
In words: Chromatin immunoprecipitation (ChIP) of histone methylation marks at the PSA promoter in LNCaP cells. The class given is cell-based. How it is done:
ChIP experiments were performed essentially as described^14. […] LNCaP cells were transfected three days before harvesting for ChIP with or without siRNA (Qiagen) following the manufacture's instructions. Immunoprecipitation was performed with specific antibodies (α-monoMeK9H3, α-diMeK9H3, α-triMeK9H3, α-monoMeK4H3, α-diMeK4H3, α-triMeK4H3, α-H3 (abcam), α-LSD1, and α-AR PG21 (Upstate Biotechnology) on GammaBind TMSepharose 4B (GE-Healthcare). For PCR, 1-5 μl out of 50 μl DNA extract was used. For Re-ChIP assays, immunoprecipitations were sequentially washed with TSE I, TSE II, buffer III, and TE^14. Complexes were eluted by incubation with 10 mM DTT at 37° C. for 30 min, diluted 50 times with dilution buffer^14 followed by a second immunoprecipitation with the indicated antibody. Primer sequences were as follows: exon 4, PSA (+3909/+4067) 5′-[…]-3′ and 5′-[…]-3′; middle, PSA (−2223/−1951) 5′-[…]-3′ and 5′-[…]-3′; PCR primers for ARE I+II (PSA (−459/−121)) and ARE III (PSA ([…])), GAPDH, and U6 have been previously described^7, 15, 16.

The mark [3] stands for this setting: R1881, PSA promoter, pargyline, FIG. 8.

SMILES strings stand for the structures. “Also recorded” adds a separate entry of the source.

Consider `C#CCN(C)CCCOc1ccc(Cl)cc1Cl` [clorgyline, N-methyl-N-propargyl-3-(2,4-dichlorophenoxy-)propylamine], for which, in assay [1], the “LSD1-induced activation of AR” value is listed as “severely impair”.
For the molecule `C#CCN(C)[C@H](C)Cc1ccccc1` [deprenyl, (R)-(−)-N,2-dimethyl-N-2-propynylphenethylamine], the “LSD1-induced activation of AR” value in assay [1] is recorded as “severely impair”.
On to `C#CCN(C)Cc1ccccc1` [pargyline, N-methyl-N-2-propynylbenzylamine], for which the “LSD1-induced activation of AR” value in assay [1] is “severely impair”. Moreover, the figures for the “androgen-induced expression of the endogenous PSA gene” value in the assay on PSA gene and in the assay on PSA gene (listed as Pargyline) were “blocks” and “reduces”, respectively. Besides, the “activity of other nuclear receptors” value in assay [2] is “does not influence; also recorded: fails to block”. Further, the “demethylation of mono- and dimethyl H3-K9 during androgen-induced transcription” value on LSD1 (R1881, PSA promoter (ARE I+II), pargyline 18 hours, FIG. 3b) was “blocks”. Moreover, the “methylation levels of trimethyl H3-K9” value at LSD1 (R1881, PSA promoter, pargyline, FIG. 3b) is listed as “remain unchanged”. Besides, the “methylation status of H3-K27” value on LSD1 (setting [3]) was “remain unchanged”. Besides, the “methylation status of H4-K20” value at LSD1 (setting [3]) was “remain unchanged”. The “methylation of histone H3 at lysine 4 (H3-K4)” value on LSD1 (in vivo ChIP, pargyline, FIG. 3b) is listed as “not influenced”.
